Test results as given in patent US20250179056A1, “NOVEL SULFATE SALT FORMS OF ISOCHROMAN-IMIDAZOLE STRUCTURED ALPHA-2A ADRENOCEPTOR AGONIST” (ORION CORPORATION, priority 2022, published 2025).
“Also recorded” adds a separate entry of the source.

Assay: Slurry experiments (SLC, SL, SLT) started with crystalline form 1; wet powders analyzed by XRPD
Format: physicochemical
Details: for Resulting crystalline form SLC: aged at 5° C. under magnetic stirring; for Resulting crystalline form SLT: aged at 40° C. in shaker at 700 rpm; for Resulting crystalline form SL: aged at room temperature under magnetic stirring
Method: The slurry experiments (SLC, SL and SLT) were carried out with the crystalline form 1 in different conditions. 15 mg of starting material were mixed with 200 μl of solvent or solvent mixture (at a concentration of about 75 mg/ml). The mixture was homogenized by vortexing for 10 seconds. The resulting suspensions were aged at different conditions: a) at 5° C. under magnetic stirring (SLC), b) at room temperature under magnetic stirring (SL), and c) at 40° C. in the shaker at 700 rpm (SLT). During the aging time, the samples were checked regularly, and solvent was added if needed. After completing the aging time, the vials were opened, and the (wet) powders were analyzed by XRPD.

[1] = slurry in 2-Butanone, about 75 mg/ml
[2] = slurry in 2-Ethoxy ethanol, about 75 mg/ml
[3] = slurry in 2-Methyltetrahydrofuran, about 75 mg/ml
[4] = slurry in Acetone/Water (86:14 vol %), water activity 0.75, about 75 mg/ml
[5] = slurry in Acetonitrile/Water (96:4 vol %), water activity 0.60, about 75 mg/ml
[6] = slurry in Ethanol, about 75 mg/ml
[7] = slurry in Ethanol/Water (26:74 vol %), water activity >0.9, about 75 mg/ml
[8] = slurry in Methanol/Water (20:80 vol %), water activity >0.9, about 75 mg/ml
[9] = slurry in THF/Water (90:10 vol %), water activity 0.88, about 75 mg/ml
[10] = slurry in Water (water activity 1), about 75 mg/ml

COc1cccc2c1CCOC2C1=NCCN1.O=S(=O)(O)O (stereo not shown) [Form 1, 2-(5-methoxyisochroman-1-yl)-4,5-dihydro-1H-imidazole sulfate crystalline form 1]
Resulting crystalline form SLC [1]: Form 1
Resulting crystalline form SLT [1]: Form 1
Resulting crystalline form SL [1]: Form 1
Resulting crystalline form SLT [2]: Form 4
Resulting crystalline form SL [2]: Form 4
Resulting crystalline form SLC [3]: Form 1
Resulting crystalline form SLT [3]: Form 1
Resulting crystalline form SL [3]: Form 1
Resulting crystalline form SLC [4]: Form 1
Resulting crystalline form SLT [4]: Form 1
Resulting crystalline form SL [4]: Form 1
Resulting crystalline form SLC [5]: Form 1
Resulting crystalline form SLT [5]: Form 1
Resulting crystalline form SL [5]: Form 1
Resulting crystalline form SLC [6]: Form 1
Resulting crystalline form SLT [6]: Form 1
Resulting crystalline form SL [6]: Form 1
Resulting crystalline form SLC [7]: Form 2; also recorded: (+Form 1)
Resulting crystalline form SLT [7]: Form 2
Resulting crystalline form SL [7]: Form 2
Resulting crystalline form SLC [8]: Form 2
Resulting crystalline form SLT [8]: Form 2
Resulting crystalline form SL [8]: Form 2
Resulting crystalline form SLC [9]: Form 1
Resulting crystalline form SLT [9]: Form 1
Resulting crystalline form SLC [10]: Form 2
Resulting crystalline form SLT [10]: Form 2
Resulting crystalline form SL [10]: Form 2
